Results from patent publication US6310243A, “Iodinated x-ray contrast media” (Nycomed Imaging AS, priority 1994, dated 2001).

Key:
Type in all cases: physicochemical
[1] = Viscosity in aqueous solution at 20° C.
Protocol: Table 2 also gives calculated value for viscosity in mPas for concentration of 400 mg I/ml and 300 mg I/ml (at 20° C.).

Water solubility = conditions: noted in Table 2 in place of a concentration
Viscosity at 37° C. = experiment: Viscosity at 37° C.

For CC(O)C(=O)Nc1c(I)c(CO)c(I)c(N(CC(O)CO)C(=O)C(C)O)c1I (stereo not shown) [Example 11, N,N'-Bis(2-hydroxypropionyl)-N-(2,3-dihydroxypropyl)-3,5-diamino-2,4,6-triiodobenzylalcohol], the “Viscosity 20° C.” value ([1]; 407 mgI/ml) was 16 mPas.
For OCc1cc(OCC(O)CO)c(I)c(OCC(O)CO)c1I (stereo not shown) [Example 78, 3,5-Bis-(2,3-dihydroxypropyloxy)-2,4-diiodobenzyl alcohol], the solubility (Water solubility) was “low”.
With O=C(NCC(O)CO)c1c(I)c(CO)c(I)c(NC(=O)C(O)C(O)CO)c1I (stereo not shown) [Example 80, 5-[N'-(2,3,4-Trihydroxybutanoyl)amino]-3-hydroxymethyl-N-(2,3-dihydroxypropyl)-2,4,6-triiodobenzamide] the “Viscosity at 350 mgI/ml (CALCULATED)” value (Viscosity at 37° C.) was 5.2 and the “Viscosity 37° C.” value (Viscosity at 37° C.; 444 mgI/ml) was 11.
In the case of O=C(Nc1c(I)c(CO)c(I)c(N(CC(O)CO)C(=O)C(O)CO)c1I)C(O)CO (stereo not shown) [Example 15, N,N'-Bis(2,3-dihydroxypropionyl)-N-(2,3-dihydroxyoronyl)-3,5-diamino-2,4,6-triiodobenzylalcohol], the “Viscosity 20° C.” value ([1]; 348 mgI/ml) is reported as 7.8 mPas, the “Viscosity 20° C.” value ([1]; 446 mgI/ml) is reported as 22 mPas and the “Viscosity 20° C.” value ([1]; 537 mgI/ml) is reported as 75 mPas.
For O=C(Nc1c(I)c(CO)c(I)c(NC(=O)C(O)C(O)CO)c1I)C(O)C(O)CO (stereo not shown) [Example 79, N,N'-Bis-(2,3,4-trihydroxybutanoyl)-3,5-diamino-2,4,6-triiodobenzyl alcohol], the “Viscosity at 350 mgI/ml (CALCULATED)” value (Viscosity at 37° C.) was 5.9 and the “Viscosity 37° C.” value (Viscosity at 37° C.; 379 mgI/ml) was 6.9.
In the case of O=C(NC(CO)C(O)CO)c1c(I)c(CO)c(I)c(NC(=O)C(O)C(O)CO)c1I (stereo not shown) [Example 81, 5-[N'-(2,3,4-Trihydroxybutanoyl)-amino]-3-hydroxymethyl-N-(1,3,4-trihydroxybut-2-yl)-2,4,6-triiodobenzamide], the “Viscosity at 350 mgI/ml (CALCULATED)” value (Viscosity at 37° C.) is reported as 6.1 and the “Viscosity 37° C.” value (Viscosity at 37° C.; 376 mgI/ml) is reported as 8.9.
For CN(CC(O)CO)C(=O)c1c(I)c(CO)c(I)c(NC(=O)CO)c1I (stereo not shown) [Example 44, 5-Hydroxyacetamido-3-hydroxymethyl-N-methyl-N-(2,3-dihydroxypropyl)-2,4,6-triiodobenzamide], the “Viscosity at 400 mgI/ml (CALCULATED)” value ([1]; 400 mgI/ml, calculated) was 10.8 mPas and the “Viscosity 20° C.” value ([1]; 481 mgI/ml) was 24 mPas.
